Assays:
human SGLT2 = biological target: T1, human SGLT2 (Homo sapiens, UniProt P31639); test: Inhibitory activity against methyl-α-D-glucopyranoside uptake, CHO cells stably expressing human SGLT2; assay type: cell-based; conditions: inhibition of SGLT2, Table 2-1; read-out: IC50 value
T1 construct: expressed in transfected cells; host or cells: CHO-K1
T1 sequence (P31639 1-672): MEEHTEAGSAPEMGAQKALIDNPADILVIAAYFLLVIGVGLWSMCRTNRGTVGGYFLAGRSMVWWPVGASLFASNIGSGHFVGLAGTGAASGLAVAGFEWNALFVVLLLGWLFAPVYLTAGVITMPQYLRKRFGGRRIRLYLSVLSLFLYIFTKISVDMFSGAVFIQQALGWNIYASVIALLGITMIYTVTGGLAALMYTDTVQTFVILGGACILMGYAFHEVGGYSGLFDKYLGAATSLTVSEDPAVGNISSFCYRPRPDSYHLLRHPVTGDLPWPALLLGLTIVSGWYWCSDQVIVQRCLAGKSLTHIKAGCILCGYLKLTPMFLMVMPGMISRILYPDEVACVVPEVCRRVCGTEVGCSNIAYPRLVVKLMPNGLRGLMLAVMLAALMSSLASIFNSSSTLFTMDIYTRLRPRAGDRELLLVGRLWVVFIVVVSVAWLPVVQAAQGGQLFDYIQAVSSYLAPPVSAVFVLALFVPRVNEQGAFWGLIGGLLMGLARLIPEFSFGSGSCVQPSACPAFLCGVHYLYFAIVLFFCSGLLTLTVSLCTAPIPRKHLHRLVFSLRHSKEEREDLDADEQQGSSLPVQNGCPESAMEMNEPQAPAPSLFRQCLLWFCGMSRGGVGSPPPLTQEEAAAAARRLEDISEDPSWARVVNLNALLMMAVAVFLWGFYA
Source text: Evaluation of inhibitory activity against methyl-α-D-glucopyranoside uptake of human Na^+-glucose cotransporter (SGLT1 and SGLT2)
2) Construction of Human SGLT2 Expression Vector
Human SGLT2 cDNA was amplified by PCR with a cDNA library derived from human kidney (Clontech) as a template, synthetic DNA primers and KOD+ DNA Polymerase. The amplified cDNA was inserted into pcRII-Topo vector by using a Topo TA Cloning Dual Promoter kit. E. coli competent cells (TPO10) were transformed with the plasmid vector, cultured in LB medium containing ampicillin (50 mg/L) to grow ampicillin-resistant clones. The plasmid vector containing human SGLT2 cDNA was purified from the clone in a standard manner. Human SGLT2 cDNA added restriction enzyme recognition sites (Xho I at 5′-end, Hind III at 3′-end) was amplified by PCR with the plasmid vector as a template, synthetic DNA primers containing an additional restriction enzyme recognition site and KOD+ DNA Polymerase. This amplified cDNA was digested with Xho I and Hind III, and ligated into expression vector pcDNA3.1(−) digested with Xho I and Hind III by using a Rapid DNA Ligation kit. E. coli competent cells (DH5α) were transformed with the ligated expression vector and grown in ampicillin-containing LB medium. Human SGLT2 expression vector was purified from the ampicillin-resistant clone in a standard manner.
3) Establishment of Cell Lines Stably Expressing Human SGLT1 or Human SGLT2
The human SGLT1 expression vector or the human SGLT2 expression vector was digested with the restriction enzyme Pvu I and transfected into CHO-Kl cells with FuGENE (Roche Diagonostics). After the transfection, the cells were cultured at 37° C. in the presence of 5% CO2 for about 3 weeks in DMEM medium (Gibco) containing penicillin (50 U/mL, SIGMA), streptomycin (50 mg/L, SIGMA), geneticin (200 mg/L, Nacalai Tesque, Inc., Japan) and 20% fetal bovine serum to obtain geneticin-resistant clones. Among these clones, clones stably expressing human SGLT1 or human SGLT2 were selected by the evaluating the sodium-dependent uptake activity of sugar (methyl-α-D-glucopyranoside).
4) Evaluation of Inhibitory Activity Against methyl-α-D-glucopyranoside uptake
Cell lines stably expressing human SGLT1 or human SGLT2 CHO were seeded in 96-well culture plates at a density of 30000 to 40000 cells/well and cultured for 4 to 6 days. The medium in these plates was removed and replaced by 150 μL/well pretreatment buffer (i.e., a buffer containing 140 mM choline chloride, 2 mM potassium chloride, 1 mM calcium chloride, 1 mM magnesium chloride, 10 mM 2-[4-(2-hydroxyethyl)-1-piperazinyl]ethanesulfonic acid and tris(hydroxymethyl)aminomethane, pH 7.4), and the plates were incubated at 37° C. for 20 minutes. The pretreatment buffer in the plates was removed, replaced by 50 μL/well fresh pretreatment buffer, and the plates were incubated at 37° C. for 20 minutes. Methyl-α-D-(U—^14C)glucopyranoside (6.3 mL, Amersham Pharmacia Biotech, 200 mCi/L) was added to and mixed with 100 mL buffer (i.e., a buffer containing 140 mM sodium chloride, 2 mM potassium chloride, 1 mM calcium chloride, 1 mM magnesium chloride, 1 mM methyl-α-D-glucopyranoside, 10 mM [4-(2-hydroxyethyl)-1-piperazinyl]ethanesulfonic acid and tris(hydroxymethyl)aminomethane, pH 7.4), which was used as uptake buffer. Test compounds were dissolved into uptake buffer and these test compound solutions were used for evaluating inhibitory activity. Uptake buffer without a test compound was used as a control solution. Moreover, for use in measuring baseline uptake in the absence of sodium, sodium-free solution was prepared in the same manner to contain 140 mM choline chloride instead of sodium chloride. The pretreatment buffer was removed from each well of the plates and replaced by 35 μL/well test compound solutions, control solution or sodium-free solution, and the plates were incubated at 37° C. for 45 minutes. […]

db/db mice = test: Study for glucose lowering effect in db/db mouse; assay type: in vivo; conditions: Mus musculus, po, 0.3 mg/kg administration, 6 hours, read-out: reduction of blood glucose 6 hours after administration
Description: Study for Glucose Lowering Effect in dB/dB Mouse
A study for glucose lowering effect was conducted using db/db mice (purchased from Clea Japan, Inc., male, 9 to 11 weeks old), type 2 diabetic model mice. On the day of the study, body weights and blood glucose levels were measured prior to the start of testing. Measurement of the blood glucose levels was performed using a simple blood glucose meter (manufactured by Bayer HealthCare, Dexter-Z II). The mice were allocated to some groups consisting of 5 mice each so that homogeneity of body weights or blood glucose levels among groups would be ensured. Blood collection was carried out by making an incision on the tip of the tail and taking the blood therefrom. On the day of the study, the test compounds were suspended in 0.5% carboxymethylcellulose solution (CMC solution), and the dosing solutions of which concentration was adjusted to either 0.3 mg/10 mL or 3 mg/10 mL were prepared. The dosing solutions were orally administered by gavage for mice in 10 mL/kg. To the control group, only a 0.5% CMC solution was orally administered in 10 mL/kg. Blood was collected prior to or sequentially after administration of test compounds by above method. The blood glucose levels were determined using a hexokinase method (AutoSera S GLU, manufactured by Daiichi Pure Chemicals Co., Ltd.). A percent reduction of blood glucose relative to control group at each time point after administration of test compounds was calculated by the following equation.
Percent reduction of blood glucose (%)={blood glucose level in the control group (mg/dL)-blood glucose level in the test compound group (mg/dL)}/blood glucose level in the control group (mg/dL)×100

IC50 (human SGLT2): 2.1 nM
Structure (SMILES): C#Cc1cc2c(cc1Cc1ccc(CC)cc1)[C@]1(OC2)O[C@H](CO)[C@@H](O)[C@H](O)[C@H]1O [Example 31, (1S,3′R,4′S,5′S,6′R)-6-[(4-ethylphenyl)methyl]-5-ethynyl-3′,4′,5′,6′-tetrahydro-6′-(hydroxymethyl)-spiro[isobenzofuran-1(3H),2′-[2H]pyran]-3′,4′,5′-triol]
inhibition in vivo at 0.3 mg/kg (db/db mice): ≥ 25%

From US20110275703A1, “SUBSTITUTED SPIROKETAL DERIVATIVES AND USE THEREOF AS THERAPEUTIC DRUG FOR DIABETES” (CHUGAI SEIYAKU KABUSHIKI KAISHA, priority 2007, published 2011)
